# Experimental data from US8785468B2, “Phenylalanine amide derivatives useful for treating insulin-related diseases and conditions” (Amgen Inc., priority 2009, dated 2014).
# Counter-ions that a name gives are not always drawn.
# Biological target: T1, human receptor found in pancreatic islet cells (Homo sapiens, UniProt Q7Z601)
# T1 sequence (Q7Z601 1-462): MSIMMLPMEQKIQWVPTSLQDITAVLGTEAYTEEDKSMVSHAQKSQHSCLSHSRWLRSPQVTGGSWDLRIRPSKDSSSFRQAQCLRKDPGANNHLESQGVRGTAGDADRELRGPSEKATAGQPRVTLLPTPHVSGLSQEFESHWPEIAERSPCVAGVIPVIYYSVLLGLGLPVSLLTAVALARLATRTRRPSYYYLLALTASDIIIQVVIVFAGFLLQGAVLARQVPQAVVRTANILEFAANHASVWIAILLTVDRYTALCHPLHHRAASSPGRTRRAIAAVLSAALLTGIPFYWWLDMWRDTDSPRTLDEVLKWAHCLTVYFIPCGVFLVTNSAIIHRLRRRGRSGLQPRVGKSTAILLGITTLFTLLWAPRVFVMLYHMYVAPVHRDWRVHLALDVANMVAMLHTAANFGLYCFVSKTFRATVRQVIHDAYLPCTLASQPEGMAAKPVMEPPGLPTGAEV
# Assay: Activation of intracellular IP3 signaling in transfected cells (Activation Assay)
# Format: cell-based
# Details: calculated from IP3 concentration measurements in cells transfected with the human receptor
# Description: Table 12 provides exemplary compounds that were prepared and assessed, following protocols known to those of skilled in the art, for activation of intracellular inositol trisphosphate (IP3) signaling pathways that lead to elevation of intracellular calcium concentration. EC50 values provided in Table 12 were calculated from IP3 concentration measurements in cells transfected with a human receptor found in pancreatic islet cells, inter alia.
row,Compound,EC50 [nM]
1,COc1ncc(-c2cc[nH]n2)cc1NC(=O)[C@H](Cc1ccccc1)NC1(c2cscn2)CC1 [Example 14.2],100 to 1000
2,"COc1ncc(-c2ccncc2)cc1NC(=O)[C@H](Cc1ccccc1)N[C@@H](C)c1ccccn1 [Example 35.2, (S)—N-(2-Methoxy-5-(pyridin-4-yl)pyridin-3-yl)-3-phenyl-2-((S)-1-(pyridin-2-yl)ethylamino)propanamide]",100 to 1000
3,"COC(=O)C1CN(Cc2cc(NC(=O)[C@H](Cc3ccccc3)NCc3ccccn3)cc(-c3ccnc(C)c3)c2)C1 [Example 80, Methyl 1-((16S)-3-(2-methylpyridin-4-yl)-5-((S)-3-phenyl-2-(pyridin-2-ylmethylamino)propanamido)benzyl)azetidine-3-carboxylate]",100 to 1000
4,"Cc1cc(-c2ccc(OCCN(C)C)c(NC(=O)[C@H](Cc3ccccc3)NCc3cscn3)c2)ccn1 [Example 75, (2S)—N-(2-(2-(Dimethylamino)ethoxy)-5-(2-methylpyridin-4-yl)phenyl)-3-phenyl-2-(thiazol-4-ylmethylamino)propanamide trifluoroacetate]",100 to 1000
5,C[C@H](N[C@@H](Cc1ccccc1)C(=O)Nc1nnc(-c2ccncc2)s1)c1cscn1 [Example 1.4],50 to 100
6,"COc1cc(NC(=O)[C@H](Cc2ccccc2)NCc2cscn2)cc(-c2ccnc(C)c2)n1 [Example 41.6, (2S)—N-(2-Methoxy-6-(2-methylpyridin-4-yl)pyridin-4-yl)-3-phenyl-2-(thiazol-4-ylmethylamino)propanamide]",100 to 1000
7,CC(C)(C(=O)O)c1cc(NC(=O)[C@H](Cc2ccccc2)NC[C@H]2CCCO2)cc(-c2ccncc2)c1 [Example 63.2],1000 to 10000
8,"O=C(Nc1cccc(-c2cc[nH]n2)c1)[C@H](Cc1ccccc1)NCc1cscn1 [Example 12, (2S)—N-(3-(1H-pyrazol-3-yl)phenyl)-3-phenyl-2-(thiazol-4-ylmethylamino)propanamide]",50 to 100
9,"Cn1ncnc1-c1cc(-c2ccncc2)cc2c1CCN2C(=O)[C@H](Cc1ccccc1)NCc1cscn1 [Example 61, (2S)-1-(4-(2-Methyl-2H-1,2,4-triazol-3-yl)-6-(pyridin-4-yl)indolin-1-yl)-3-phenyl-2-(thiazol-4-ylmethylamino)propan-1-one]",1000 to 10000
10,"CCn1nc(-c2ccncc2)cc1NC(=O)[C@H](Cc1ccccc1)N[C@H](C)C(=O)O [Example 20.3, (R)-2-((S)-1-(1-Ethyl-3-(pyridin-4-yl)-1H-pyrazol-5-ylamino)-1-oxo-3-phenylpropan-2-ylamino)propanoic acid]",1000 to 10000
11,"O=C(Nc1cccc(-c2ccncc2)c1)[C@@H](Cc1ccccc1)NCc1cscn1 [Example 34.5, (R)-3-Phenyl-N-(3-(pyridin-4-yl)phenyl)-2-(thiazol-4-ylmethylamino)propanamide trifluoroacetate]",1000 to 10000
12,"O=C(Nc1cc(-c2ccncc2)no1)[C@H](Cc1ccc(Cl)cc1)NCc1cscn1 [Example 3.1, (S)-3-(4-Chlorophenyl)-N-(3-(pyridin-4-yl)isoxazol-5-yl)-2-(thiazol-4-ylmethylamino)propanamide]",100 to 1000
13,"CCn1nc(-c2ccnc(C)c2)cc1NC(=O)[C@H](Cc1ccc(F)cc1)NCc1cscn1 [Example 28, (2S)—N-(1-ethyl-3-(2-methylpyridin-4-yl)-1H-pyrazol-5-yl)-3-(4-fluorophenyl)-2-(thiazol-4-ylmethylamino)propanamide dihydrochloride]",< 50
14,"O=C(Nc1cc(-c2ccncc2)n[nH]1)[C@H](Cc1ccccc1)NCc1cscn1 [Example 7, (S)-3-Phenyl-N-(3-(pyridin-4-yl)-1H-pyrazol-5-yl)-2-(thiazol-4-ylmethylamino)propanamide]",50 to 100
15,"CCn1nc(-c2ccncc2)cc1NC(=O)[C@H](Cc1ccc(F)cc1)NCc1cscn1 [Example 20.1, (S)—N-(1-ethyl-3-(pyridine-4-yl)-1H-pyrazol-5-yl)-3-(4-fluorophenyl)-2-(thiazol-4-ylmethlamino)propanamide]",< 50
16,"COc1ncc(-c2ccn[nH]2)cc1NC(=O)[C@H](Cc1ccccc1)NC1(c2ccccn2)CC1 [Example 14.1, (2S)—N-(2-methoxy-5-(1H-pyrazol-5-yl)pyridin-3-yl)-3-phenyl-2-(1-(pyridin-2-yl)cyclopropylamino)propanamide]",100 to 1000
17,"Cc1cc(-c2cc(NC(=O)[C@H](Cc3ccc(F)cc3)NCc3cscn3)n(C)n2)ccn1 [Example 16.1, (2S)-3-(4-Fluorophenyl)-N-(1-methyl-3-(2-methylpyridin-4-yl)-1H-pyrazol-5-yl)-2-(thiazol-4-ylmethylamino)propanamide]",< 50

row,Compound,EC50 [nM]
1,"CCCn1nc(-c2ccnc(NC)c2)cc1NC(=O)[C@H](Cc1ccc(F)cc1)NCc1cscn1 [Example 42, (2S)-3-(4-fluorophenyl)-N-(3-(2-(methylamino)pyridin-4-yl)-1-propyl-1H-pyrazol-5-yl)-2-(thiazol-4-ylmethylamino)propanamide]",< 50
2,"O=C([C@H](Cc1ccccc1)NCc1cscn1)N1CCc2c(-c3n[nH]c(=O)o3)cc(-c3ccncc3)cc21 [Example 57, (S)-5-(1-(3-Phenyl-2-(thiazol-4-ylmethylamino)propanoyl)-6-(pyridin-4-yl)indolin-4-yl)-1,3,4-oxadiazol-2(3H)-oneTFA salt]",50 to 100
3,"CNc1cc(-c2cc(NC(=O)[C@H](Cc3ccc(F)cc3)NCc3c[nH]nn3)[nH]n2)ccn1 [Example 18.2, (2S)-2-((1H-1,2,3-triazol-4-yl)methylamino)-3-(4-fluorophenyl)-N-(3-(2-(methylamino)pyridin-4-yl)-1H-pyrazol-5-yl)propanamide]",< 50
4,"N[C@@H](Cc1ccccc1)C(=O)N1CCc2ccc(-c3ccn[nH]3)cc21 [Example 83, (2S)-1-(6-(1H-pyrazol-5-yl)indolin-1-yl)-2-amino-3-phenylpropan-1-one Ditrifluoroacetate]",1000 to 10000
5,"Cn1nc(-c2ccncc2)cc1NC(=O)[C@H](Cc1ccccc1)NCc1cscn1 [Example 17.2, (S)—N-(1-Methyl-3-(pyridin-4-yl)-1H-pyrazol-5-yl)-3-phenyl-2-(thiazol-4-ylmethylamino)propanamide]",< 50
6,"Cc1cc(-c2cc(NC(=O)[C@H](Cc3ccccc3)NCc3ccccn3)cc(OCCN(C)C)c2)ccn1 [Example 76, (2S)—N-(3-(2-(Dimethylamino)ethoxy)-5-(2-methylpyridin-4-yl)phenyl)-3-phenyl-2-(pyridin-2-ylmethylamino)propanamide]",100 to 1000
7,"Cc1cc(-c2cc(NC(=O)[C@H](Cc3ccccc3)NCc3cscn3)cc(NS(C)(=O)=O)c2)ccn1 [Example 51.1, (2S)—N-(3-(2-Methylpyridin-4-yl)-5-(methylsulfonamido)phenyl)-3-phenyl-2-(thiazol-4-ylmethylamino)propanamide]",50 to 100
8,"O=C(Nc1cc(-c2ccncc2)cc(C(F)(F)C(=O)O)c1)[C@H](Cc1ccccc1)NCc1cscn1 [Example 52, (S)-2,2-difluoro-2-(3-(3-phenyl-2-(thiazol-4-ylmethylamino)propanamido)-5-(pyridin-4-yl)phenyl)acetic acid]",100 to 1000
9,"CNc1cc(-c2cc(NC(=O)[C@H](Cc3ccc(F)cc3)NCc3cscn3)[nH]n2)ccn1 [Example 18.1, (2S)-3-(4-Fluorophenyl)-N-(3-(2-(methylamino)pyridin-4-yl)-1H-pyrazol-5-yl)-2-(thiazol-4-ylmethylamino)propanamide]",< 50
10,"O=C(Nc1cccc(-c2ccncc2)c1)[C@H](Cc1ccccc1)NCc1cncs1 [Example 34.17, (S)-3-Phenyl-N-(3-(pyridin-4-yl)phenyl)-2-(thiazol-5-ylmethylamino)propanamide]",100 to 1000
11,"CC(C)(C)OC(=O)c1cc(NC(=O)[C@H](Cc2ccccc2)NC2(c3ccccn3)CC2)cc(-c2ccncc2)c1 [Example 73, (S)— tert-Butyl 3-(3-phenyl-2-(1-(pyridin-2-yl)cyclopropylamino)propanamido)-5-(pyridin-4-yl)benzoate]",100 to 1000
12,"O=C(Nc1nnc(-c2ccncc2)[nH]1)[C@H](Cc1ccccc1)NCc1cscn1 [Example 2, (S)-3-Phenyl-N-(5-(pyridin-4-yl)-4H-1,2,4-triazol-3-yl)-2-(thiazol-4-ylmethylamino)propanamide]",1000 to 10000
13,"O=C(Nc1nnc(-c2ccncc2)s1)[C@H](Cc1cccc(F)c1)NCc1cscn1 [Example 1.6, (S)-3-(3-fluorophenyl)-N-(5-(pyridin-4-yl)-1,3,4-thiadiazol-2-yl)-2-(thiazol-4-ylmethylamino)propanamide]",50 to 100
14,"CC(C)N[C@@H](Cc1ccccc1)C(=O)Nc1cccc(-c2ccncc2)c1 [Example 34.13, (S)-2-(Isopropylamino)-3-phenyl-N-(3-(pyridin-4-yl)phenyl)propanamide]",1000 to 10000
15,"CCn1nc(-c2ccnc(NC)c2)cc1NC(=O)[C@H](Cc1ccc(F)cc1)NCc1c[nH]nn1 [Example 31.2, (2S)-2-((1H-1,2,3-triazol-4-yl)methylamino)-N-(1-ethyl-3-(2-(methylamino)pyridin-4-yl)-1H-pyrazol-5-yl)-3-(4-fluorophenyl)propanamide]",< 50
16,"CCC(N[C@@H](Cc1ccccc1)C(=O)Nc1cccc(-c2ccncc2)c1)c1ccccn1 (stereo partly drawn) [Example 34.3, (2S)-3-Phenyl-2-(1-(pyridin-2-yl)propylamino)-N-(3-(pyridin-4-yl)phenyl)propanamide]",50 to 100
